# According to the Deep4Chem optical property database:
# Test: solvent given as SMILES
smiles,measurement,setting,value
O=S(=O)([O-])c1cc([O-])c2ccc3c(S(=O)(=O)[O-])cc(S(=O)(=O)[O-])c4ccc1c2c34,emission maximum,in CC#N,513 nm
same,emission maximum,in CC(C)O,511.01 nm
same,emission maximum,in CCO,510 nm
same,emission maximum,in CO,509.01 nm
same,emission maximum,in NC=O,519 nm
same,emission maximum,in O,511.01 nm
same,emission maximum,in OC(C(F)(F)F)C(F)(F)F,506 nm
same,emission maximum,in OCC(F)(F)F,508 nm
same,emission maximum,in OCCO,512.01 nm
Cc1nn(-c2ccccc2)c2c1c(=O)oc1ccc(-n3c4ccccc4c4ccccc43)cc12,emission maximum,in Cc1ccccc1,412 nm
O=C1CCCc2c1[nH]c1cc3c(cc21)OCO3,emission maximum,in C1CCOC1,403.84 nm
same,emission maximum,in CC#N,399.42 nm
same,emission maximum,in CCCCCCO,430.73 nm
same,emission maximum,in CCO,437.63 nm
same,emission maximum,in CCOC(C)=O,388.9 nm
same,emission maximum,in CS(C)=O,403.54 nm
same,emission maximum,in O,463.6 nm
same,emission maximum,in c1ccccc1,384.12 nm
CC[N+](CC)=c1ccc2cc3c(=O)oc4cc5c(cc4c3oc-2c1)CCCN5C,emission maximum,in ClCCl,648 nm
same,emission maximum,in O,658 nm
CC1(C)Nc2cc3nc4cc(F)c(F)cc4nc3cc2N1,emission maximum,in CCO,496 nm
COC(=O)C[C@H](Cc1c[nH]c2ccccc12)NC(=O)[C@H](CC(=O)N[C@@H](CC1=CCc2ccccc21)C(=O)OC)NC(=O)[C@H](Cc1c[nH]c2ccccc12)NC(=O)OC(C)(C)C,emission maximum,in CC#N,334 nm
same,emission maximum,in CCOC(C)=O,330 nm
same,emission maximum,in CO,338 nm
C(=C\c1nc(/C=C/c2ccc(-n3c4ccccc4c4ccccc43)cc2)nc(/C=C/c2ccc(-n3c4ccccc4c4ccccc43)cc2)n1)/c1ccc(-n2c3ccccc3c3ccccc32)cc1,emission maximum,in C1CCOC1,500 nm
same,emission maximum,in CC#N,574 nm
same,emission maximum,in Cc1ccccc1,453 nm
same,emission maximum,in ClCCl,526 nm
Cc1ccccc1C1=C2C=c3c(oc4ccc(C(C)(C)C)cc34)=[N+]2[B-](F)(F)n2c1cc1c3cc(C(C)(C)C)ccc3oc12,emission maximum,in C1CCCCC1,602 nm
same,emission maximum,in CCOC(C)=O,602 nm
same,emission maximum,in CO,600.5 nm
F[B-]1(F)n2c(cc(Br)c2Br)C(c2ccccc2)=C2C=C(Br)C(Br)=[N+]21,emission maximum,in ClC(Cl)Cl,570 nm
CC[N+]1=C(/C=C/C=C/C=C/C=C2/N(CCCCCC(=O)O)c3ccccc3C2(C)C)C(C)(C)c2cc(S(=O)(=O)[O-])ccc21,emission maximum,in CO,775 nm
same,emission maximum,in O,769 nm
CCN(CC)c1cc2oc3cc(N(CC)CC)c(F)cc3c(=O)c2cc1F,emission maximum,in CCO,452 nm
Cc1cc(=O)oc2cc(O)ccc12,emission maximum,in CCO,380 nm
CC(=C(C#Cc1ccccc1)C#Cc1ccccc1)c1ccc(C(C)=C(C#Cc2ccccc2)C#Cc2ccccc2)cc1,emission maximum,in ClC(Cl)Cl,454 nm
c1ccc2c(c1)CC1(C2)c2cc(N3c4ccccc4Sc4ccccc43)ccc2-c2ccc(N3c4ccccc4Sc4ccccc43)cc21,emission maximum,in Cc1ccccc1,495 nm
C1=Cc2ccc(N(c3ccccc3)c3ccccc3)cc2C2(c3cc(N(c4ccccc4)c4ccccc4)ccc31)c1ccccc1-c1ccccc12,emission maximum,in ClCCl,461 nm
COc1cccc(-n2c(-c3ccccc3)nc(C)c2C)c1,emission maximum,in C1COCCO1,366 nm
same,emission maximum,in CC#N,373 nm
same,emission maximum,in CCCCCC,365 nm
same,emission maximum,in CCCCO,370 nm
same,emission maximum,in CCO,369 nm
same,emission maximum,in CCOC(C)=O,370 nm
same,emission maximum,in CO,368 nm
same,emission maximum,in ClC(Cl)Cl,366 nm
same,emission maximum,in ClCCl,364 nm
same,emission maximum,in c1ccccc1,372 nm
Cc1nc2c(ccc3c2sc(/C=C/C=C/c2ccc(N(C)C)cc2)[n+]3C)s1,emission maximum,in CO,700 nm
same,emission maximum,in ClC(Cl)Cl,696 nm
COc1ccc(-c2nc(-c3ccccc3OC)[nH]c2-c2ccc(OC)cc2)cc1,emission maximum,in CO,392 nm
COc1cc(OC)c2cc(-c3ccc(-c4cc5c(OC)cc(OC)cc5oc4=O)cc3)c(=O)oc2c1,emission maximum,in ClC(Cl)Cl,446 nm
COOCc1noc(-c2ccccc2)c1Cl,emission maximum,in C1CCCCC1,345 nm
CN(C)c1ccc(N2c3sc4ccccc4c3Sc3c2sc2ccccc32)cc1,emission maximum,in ClCCl,556 nm
CC(C)[Si](C#Cc1ccc2c(C#C[Si](C(C)C)(C(C)C)C(C)C)cc3c4cc(C#C[Si](C(C)C)(C(C)C)C(C)C)ccc4c(C#C[Si](C(C)C)(C(C)C)C(C)C)cc3c2c1)(C(C)C)C(C)C,emission maximum,in ClCCl,408 nm
c1cc2c3c(c1)OCCCCCCCOc1cccc(c1-c1c4ccccc4c-3c3ccccc13)OCCCCCCCO2,emission maximum,in C1CCCCC1,427 nm
CC(=O)c1ccc(-c2nc3ccc(N(C)C)c(Cl)c3s2)cc1,emission maximum,in C1CCCCC1,424 nm
same,emission maximum,in CC#N,568 nm
same,emission maximum,in CC(C)O,585.02 nm
same,emission maximum,in CO,629 nm
same,emission maximum,in CS(C)=O,569.23 nm
same,emission maximum,in ClC(Cl)Cl,506 nm
same,emission maximum,in c1ccccc1,474.9 nm
COC(=O)c1c(-c2cc3ccccc3oc2=O)nn(-c2cccc(Cl)c2)c1C(=O)OC,emission maximum,in ClCCl,418 nm
COc1ccc(-c2ccc3c(c2)C=Cc2cc(-c4ccc(OC)cc4)ccc2[Si]3(C)C)cc1,emission maximum,in ClCCl,391 nm
CCOC(=O)/C=C/c1cc2ccc(-c3cn(Cc4ccccc4)nn3)cc2oc1=O,emission maximum,in CCO,435 nm
CC(C)c1cccc(C(C)C)c1N1C(c2ccccc2)=Cc2ccc3ccccc3[n+]2[B-]1(F)F,emission maximum,in ClCCl,472 nm
CCCCCCCCN1C(=O)c2ccc3c4c(-c5ccc(-n6c7ccccc7c7ccccc76)cc5)cc5c6c(cc(-c7ccc(-n8c9ccccc9c9ccccc98)cc7)c(c7ccc(c2c37)C1=O)c64)C(=O)N(CCCCCCCC)C5=O,emission maximum,in ClC(Cl)Cl,651 nm
CC1=C2C3=C(CCc4ccccc43)C(C)=[N+]2[B-](F)(F)n2c(C)c3c(c21)-c1ccccc1CC3,emission maximum,in CC#N,599 nm
Clc1ccc(N2c3sc4ccccc4c3Sc3sc4ccccc4c32)cc1,emission maximum,in ClCCl,563 nm
COC(=O)c1ccccc1-c1c2ccc(=[NH2+])cc-2oc2cc(N)ccc12,emission maximum,in CC#N,525 nm
same,emission maximum,in CCO,529 nm
same,emission maximum,in CN(C)C=O,538 nm
same,emission maximum,in O,527 nm
COc1ccc(/C=C/C2=CC(/C=C/c3ccc(OC)cc3)=[O+][B-](F)(F)O2)cc1,emission maximum,in CC#N,549 nm
same,emission maximum,in CC(C)=O,534 nm
same,emission maximum,in CCOC(C)=O,515 nm
same,emission maximum,in CCOCC,497 nm
same,emission maximum,in ClC(Cl)(Cl)Cl,492 nm
same,emission maximum,in ClCCl,538 nm
C=Cc1cc2cc3c(cc2oc1=O)OCO3,emission maximum,in CC#N,448 nm
CC(C)(C)c1ccc(C#Cc2c(C#Cc3ccc(C(C)(C)C)cc3)c3cccc4c(C#Cc5ccc(C(C)(C)C)cc5)c(C#Cc5ccc(C(C)(C)C)cc5)c5cccc2c5c34)cc1,emission maximum,in ClCCl,443 nm
O=C(O)CCCOc1cc2ccc3cccc4ccc(c1)c2c34,emission maximum,in CO,382 nm
CCCCCc1ccc(C#Cc2cc(C#Cc3ccc(CCCCC)cc3)c3ccc4c(C(=O)c5ccccc5)cc(C#Cc5ccc(CCCCC)cc5)c5ccc2c3c54)cc1,emission maximum,in ClCCl,511 nm
CCCCCCCCn1nnc(-c2ccc(C#Cc3ccc(C#Cc4ccc(-c5nnn(CCCCCCCC)n5)cc4)c4nc5c6ccccc6c6ccccc6c5nc34)cc2)n1,emission maximum,in C1CCOC1,495 nm
same,emission maximum,in Cc1ccccc1,488 nm
same,emission maximum,in ClCCl,502 nm
C=C(C)C(CN1C(=O)c2cccc3c2c(cc2oc(C)nc23)C1=O)OO (stereo not given),emission maximum,in CCO,416 nm
F[B-]1(F)n2c(/C=C/c3ccc(C(=C(c4ccccc4)c4ccccc4)c4ccccc4)cc3)ccc2C(c2ccccc2)=C2C=CC(/C=C/c3ccc(C(=C(c4ccccc4)c4ccccc4)c4ccccc4)cc3)=[N+]21,emission maximum,in C1CCOC1,690 nm
CCCCN1C(=O)C2=C(c3ccc(-c4ccccc4)cc3)NC(=O)C2=C1c1ccc(-c2ccccc2)cc1,emission maximum,in ClCCl,545 nm
CCOCCOCCOC(=O)/C=C/C1=CC2=C(c3c(C)cc(C)cc3C)c3cc(/C=C/C(=O)OCCOCCOCC)cn3[B-](F)(F)[N+]2=C1,emission maximum,in ClCCl,606 nm
CCOC(=O)c1c2c3c(ccc(F)c3c3cc4c(cc13)[Si](C)(C)O[Si]4(C)C)N(C)C2=O,emission maximum,in CC#N,411 nm
c1ccc(-c2nn(-c3ccccc3)c3nc4ccccc4cc23)cc1,emission maximum,in C1CCCCC1,443.66 nm
same,emission maximum,in C1CCOC1,467.73 nm
same,emission maximum,in CC#N,478.01 nm
same,emission maximum,in CC(C)=O,472.59 nm
same,emission maximum,in CCCCCl,462.96 nm
same,emission maximum,in CCCCOCCCC,454.96 nm
same,emission maximum,in CN(C)C=O,476.64 nm
COc1cccc(/C=C/C(=O)c2c(O)cc(C)oc2=O)c1,emission maximum,in CC#N,500 nm
same,emission maximum,in ClCCl,490 nm
c1ccc(-c2c3ccccc3nc3cc4ccccc4cc23)cc1,emission maximum,in ClCCl,525 nm
CC(=O)c1ccc(-c2cnc3nn4ccccc4c3n2)cc1,emission maximum,in C1CCOC1,455 nm
CCC1=C(C)C2=C(C)c3cc(I)c(I)n3[B-](F)(F)[N+]2=C1C,emission maximum,in C1CCCCC1,546 nm
same,emission maximum,in CC(C)=O,544.5 nm
same,emission maximum,in CCO,548 nm
same,emission maximum,in CCOC(C)=O,544.5 nm
same,emission maximum,in CO,546 nm
same,emission maximum,in OCC(F)(F)F,542.5 nm
FC(F)(F)c1ccc(-n2c(-c3ccc(N(c4ccc(-c5ccc(N(c6ccc(-c7nc8c9ccccc9c9ccccc9c8n7-c7ccc(C(F)(F)F)cc7)cc6)c6ccc(-c7nc8c9ccccc9c9ccccc9c8n7-c7ccc(C(F)(F)F)cc7)cc6)cc5)cc4)c4ccc(-c5nc6c7ccccc7c7ccccc7c6n5-c5ccc(C(F)(F)F)cc5)cc4)cc3)nc3c4ccccc4c4ccccc4c32)cc1,emission maximum,in ClCCl,442 nm
OC1(c2ccc(-c3cccs3)s2)CCCCC1,emission maximum,in C1CCOC1,458 nm
same,emission maximum,in CC#N,466 nm
same,emission maximum,in CCCCCC,465 nm
same,emission maximum,in CCO,465 nm
same,emission maximum,in OCCOCCO,447 nm
same,emission maximum,in c1ccncc1,475 nm
F[B-]1(F)n2c(c3cccc4cccc2c43)=Nc2sc3ccccc3[n+]21,emission maximum,in C1CCOC1,501 nm
same,emission maximum,in CC#N,500 nm
same,emission maximum,in CCCCCC,493 nm
same,emission maximum,in Cc1ccccc1,504 nm
same,emission maximum,in ClCCl,529 nm
CCCCN1\C(=C/C=C/C=C/C2=[N+](CCCC)c3ccc4ccccc4c3C2(C)C)C(C)(C)c2c1ccc1ccccc21,emission maximum,in C1CCOC1,710 nm
same,emission maximum,in CC#N,698 nm
same,emission maximum,in CC(C)=O,701 nm
same,emission maximum,in CCO,704 nm
same,emission maximum,in CN(C)C=O,705 nm
same,emission maximum,in CO,701 nm
same,emission maximum,in CS(C)=O,709 nm
same,emission maximum,in ClCCl,713 nm
